Data set [1] is described as follows: Release of lidocaine or erythromycin from nanoparticle aggregates in PBS. Type of data set: physicochemical. As to conditions: dry blended with pHEMA or HEMA/GMA copolymer powder, aggregate formed in PBS.
Text: Poly-HEMA nanoparticle powder and HEMA/GMA copolymer nanoparticle powders were dry blended with lidocaine or erythromycin powder and upon exposure to PBS, aggregates formed trapping the active between the particles comprising the aggregate.
Data set [2] concerns metalloproteases. The note with it: cited from earlier work.

Structures are written as SMILES.

Turning to `CC[C@H]1OC(=O)[C@H](C)[C@@H](O[C@H]2C[C@@](C)(OC)[C@@H](O)[C@H](C)O2)[C@H](C)[C@@H](O[C@@H]2O[C@H](C)C[C@H](N(C)C)[C@H]2O)[C@](C)(O)C[C@@H](C)C(=O)[C@H](C)[C@@H](O)[C@]1(C)O` [erythromycin], the “Change of release rate as the glycerol methacrylate comonomer is increased” value in data set [1] is reported as “increases”. Same read-out and setting: the value for `CCN(CC)CC(=O)Nc1c(C)cccc1C` [lidocaine] was “released at a slower rate”. Turning to `c1cnc2c(c1)ccc1cccnc12` [1,10 phenanthroline], the Effective concentration in data set [2] is 0.1 mmol/L.

The values above are taken from patent US7910135B2, “Hydrogel wound dressing and biomaterials formed in situ and their uses” (ULURU Inc., priority 2006, dated 2011).
